Measurements reported in US11753408B2, “Compounds and method for blocking transmission of malarial parasite” (The United States of America, as represented by the …, priority 2016, dated 2023).

Tests used:
[1] = Microsomal stability (rat); type: in vitro ADME; conditions: rat microsomes
[2] = system: Asexual parasites of P. falciparum strain 3D7; test: In vitro drug activity on asexual parasites (SYBR Green assay); type: cell-based, Plasmodium falciparum
How it was run: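 3D7 parasites at 0.5% parasitemia and 2% hematocrit were exposed to drugs (DMSO ≤0.5%) for 72 h under standard culture conditions, in duplicate. After freeze-thaw lysis, SYBR Green I lysis buffer was added for 30 min at room temperature, and fluorescence was read at 490/520 nm.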

[3] = system: Stage III-V gametocytes (blood stage P. falciparum parasites); test: In vitro drug activity on gametocytes (AlamarBlue viability assay); type: cell-based, Plasmodium falciparum; conditions: read-out: Gametocyte EC50
How it was run: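 P. falciparum 3D7 stage III–V gametocytes (also HB3, Dd2), enriched by 50 mM N-acetylglucosamine and Percoll gradient, seeded at 20,000/well with compound for 72 h at 37° C, 5% CO2. AlamarBlue then added for 24 h; viability read as fluorescence (Ex 525, Em 598 nm).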

Solubility at pH 7.4 = type: physicochemical
PAMPA permeability = type: in vitro ADME
mTOR = mTOR (Homo sapiens, UniProt P42345); test: mTOR activity (no method described); type: biochemical

Structure (SMILES) | Microsomal Stability (rat) T1/2 [1] [min] | EC50 [2] [nM] | Sol @ pH 7.4 (Solubility at pH 7.4) [ug/mL] | PAMPA Permeability (PAMPA permeability) [×10⁻⁶ cm/s] | mTOR (mTOR) | EC50 [3] [nM]
CN(C)C(=O)c1ccc(-n2c(=O)ccc3cnc4ccc(-c5ccc(Cl)cc5)cc4c32)cc1 [Compound 100] | 3.8 | 14.8 | <1.0 | 315 | 1531 nM | 45.5
CN1CCN(C(=O)c2ccc(-n3c(=O)ccc4cnc5ccc(-c6ccc(Cl)cc6)cc5c43)cc2)CC1 [Compound 102] | 5 | 186 | 7.5 | 1080 | 5191 nM | 116
O=C(c1ccc(-n2c(=O)ccc3cnc4ccc(-c5ccc(Cl)cc5)cc4c32)cc1)N1CCNCC1 [Compound 103] | 10.5 | 74.3 | 6.3 | 76.1 | 2997 nM | 71.3
O=C(c1ccc(-n2c(=O)ccc3cnc4ccc(-c5ccc(Cl)cc5)cc4c32)cc1)N1CCCCC1 [Compound 104] | 1.4 | 215 | <1.0 | 389 | 2680 nM | 194
O=C(c1ccc(-n2c(=O)ccc3cnc4ccc(-c5ccc(Cl)cc5)cc4c32)cc1)N(CCO)CCO [Compound 105] | 5.9 | 47.9 | 14.8 | 285 | 779.9 nM | 94.3
O=C(c1ccc(-n2c(=O)ccc3cnc4ccc(-c5ccc(Cl)cc5)cc4c32)cc1)N1CCCC1 [Compound 106] | 2.1 | 64 | <1.0 | 621 | 1735 nM | 126
O=C(c1ccc(-n2c(=O)ccc3cnc4ccc(-c5ccc(Cl)cc5)cc4c32)cc1)N1CCN(CCO)CC1 [Compound 109] | 12.3 | 60.7 | 4.2 | 227 | 3260 nM | 18
CNC(=O)c1ccc(-n2c(=O)ccc3cnc4ccc(-c5ccc(Cl)cc5)cc4c32)cc1Cl [Compound 115] | 9 | 8.14 | <1.0 | < 1 | 229.4 nM | 6.21
O=C(c1ccc(-n2c(=O)ccc3cnc4ccc(-c5ccc(Cl)cc5)cc4c32)cc1C(F)(F)F)N1CCOCC1 [Compound 126] | 1.7 | 24 | <1.0 | 1240 | 372.4 nM | 118
CCN(CC)C(=O)c1ccc(-n2c(=O)ccc3cnc4ccc(-c5ccc(Cl)cc5)cc4c32)cc1 [Compound 132] | <1.0 | 63.1 | <1.0 | 2320 | 736.2 nM | 344
N#Cc1cc(NC(=O)c2ccc(-n3c(=O)ccc4cnc5ccc(-c6ccc(Cl)cc6)cc5c43)cc2)ccc1F [Compound 133] | >30.0 | 4000 | <1.0 | < 5.4 | inactive | 10100
O=C(c1ccc(-n2c(=O)ccc3cnc4ccc(-c5ccc(Cl)cc5)cc4c32)cc1)N1CC2CCC(C1)O2 [Compound 138] | 4.8 | 173 | <1.0 | 891 | 1278 nM | 277
O=C(c1ccc(-n2c(=O)ccc3cnc4ccc(-c5ccc(Cl)cc5)cc4c32)cc1)N1C2CCC1CC(O)C2 (stereo not drawn) [Compound 139] | 4.3 | 20.6 | <1.0 | 238 | 405.1 nM | 153
CN1CC2CC1CN2C(=O)c1ccc(-n2c(=O)ccc3cnc4ccc(-c5ccc(Cl)cc5)cc4c32)cc1 (stereo not drawn) [Compound 140] | 9.6 | 59.2 | >77.0 | 1390 | 6373 nM | 272
CN1CC2CN(C(=O)c3ccc(-n4c(=O)ccc5cnc6ccc(-c7ccc(Cl)cc7)cc6c54)cc3)CC2C1 (stereo not drawn) [Compound 141] | 4.2 | 47.5 | 66.5 | 1500 | 8043 nM | 260
CN(C(=O)c1ccc(-n2c(=O)ccc3cnc4ccc(-c5ccc(Cl)cc5)cc4c32)cc1)C1CC1 [Compound 143] | 1.6 | 63.1 | <1.0 | 1420 | 671.6 nM | 242

The next lines start with results.

Microsomal Stability (rat) T1/2 [1] [min] | EC50 [2] [nM] | Sol @ pH 7.4 (Solubility at pH 7.4) [ug/mL] | PAMPA Permeability (PAMPA permeability) [×10⁻⁶ cm/s] | mTOR (mTOR) | Structure (SMILES) | EC50 [3] [nM]
6.9 | 32.3 | <1.0 | 10.1 | 541.4 nM | O=C(c1ccc(-n2c(=O)ccc3cnc4ccc(-c5ccc(F)cc5)cc4c32)cc1)N1CCOCC1 [Compound 107] | 65.9
<1.0 | 61.4 | <1.0 | 119 | 1165 nM | O=C(c1ccc(-n2c(=O)ccc3cnc4ccc(-c5ccc(Cl)cc5)cc4c32)cc1)N1CCC1 [Compound 108] | 59.1
<1.0 | 22 | <1.0 | 383 | 454.6 nM | O=C(c1ccc(-n2c(=O)ccc3cnc4ccc(-c5ccc(Cl)cc5)cc4c32)cc1Cl)N1CCOCC1 [Compound 116] | 65
12.2 | 105 | 7.3 | 9.1 | 338.7 nM | O=C1Cc2cc(-c3ccc4ncc5ccc(=O)n(-c6ccc(C(=O)N7CCOCC7)cc6)c5c4c3)ccc2N1 [Compound 127] | 169
12.7 | 6.05 | 1.5 | 735 | 310.6 nM | O=C(c1ccc(-n2c(=O)ccc3cnc4ccc(-c5cccc(O)c5)cc4c32)cc1)N1CCOCC1 [Compound 128] | 31.4
>30.0 | 1440 | 20.3 | 5.4 | 856.7 nM | O=C1NCc2cc(-c3ccc4ncc5ccc(=O)n(-c6ccc(C(=O)N7CCOCC7)cc6)c5c4c3)ccc21 [Compound 129] | 680
>30.0 | 20.2 | 9.2 | 467 | 202.1 nM | Nc1cccc(-c2ccc3ncc4ccc(=O)n(-c5ccc(C(=O)N6CCOCC6)cc5)c4c3c2)c1 [Compound 130] | 72.2
>30.0 | 17500 | >75.0 | 1.9 | 1557 nM | O=C(O)c1cccc(-c2ccc3ncc4ccc(=O)n(-c5ccc(C(=O)N6CCOCC6)cc5)c4c3c2)c1 [Compound 131] | 17400
10.5 | 72.7 | <1.0 | 142 | 2007 nM | O=C(c1ccc(-n2c(=O)ccc3cnc4ccc(-c5ccc(Cl)cc5O)cc4c32)cc1)N1CCOCC1 [Compound 134] | 256
7.8 | 94.5 | 8.6 | 1290 | 3591 nM | Nc1cc(Cl)ccc1-c1ccc2ncc3ccc(=O)n(-c4ccc(C(=O)N5CCOCC5)cc4)c3c2c1 [Compound 136] | 733
4.1 | 368 | <1.0 | 1470 | 2083 nM | Cc1cc(-c2ccc3ncc4ccc(=O)n(-c5ccc(C(=O)N6CCOCC6)cc5)c4c3c2)ccc1Cl [Compound 144] | 1760
4.9 | 60.6 | <1.0 | 363 | 1214 nM | COc1cc(-c2ccc3ncc4ccc(=O)n(-c5ccc(C(=O)N6CCOCC6)cc5)c4c3c2)ccc1Cl [Compound 145] | 266
9.6 | 536 | 63 | 98.3 | 5732 nM | CN(C)C(=O)c1cc(-c2ccc3ncc4ccc(=O)n(-c5ccc(C(=O)N6CCOCC6)cc5)c4c3c2)ccc1Cl [Compound 146] | 1810
3.1 | 4810 | >90.0 | 109 | 21220 nM | O=C(c1ccc(-n2c(=O)ccc3cnc4ccc(-c5ccc(Cl)c(C(=O)N6CCOCC6)c5)cc4c32)cc1)N1CCOCC1 [Compound 147] | 18300
